Experimental findings from patent US10759781B2, “Substituted guanidine derivatives” (UBE INDUSTRIES, LTD., priority 2015, dated 2020) are described below.

For this test, the target named is T1, Human VAP-1 enzyme (Homo sapiens, UniProt Q16853).
T1 construct: purchased R&D Systems, Inc
T1 sequence (Q16853 1-763): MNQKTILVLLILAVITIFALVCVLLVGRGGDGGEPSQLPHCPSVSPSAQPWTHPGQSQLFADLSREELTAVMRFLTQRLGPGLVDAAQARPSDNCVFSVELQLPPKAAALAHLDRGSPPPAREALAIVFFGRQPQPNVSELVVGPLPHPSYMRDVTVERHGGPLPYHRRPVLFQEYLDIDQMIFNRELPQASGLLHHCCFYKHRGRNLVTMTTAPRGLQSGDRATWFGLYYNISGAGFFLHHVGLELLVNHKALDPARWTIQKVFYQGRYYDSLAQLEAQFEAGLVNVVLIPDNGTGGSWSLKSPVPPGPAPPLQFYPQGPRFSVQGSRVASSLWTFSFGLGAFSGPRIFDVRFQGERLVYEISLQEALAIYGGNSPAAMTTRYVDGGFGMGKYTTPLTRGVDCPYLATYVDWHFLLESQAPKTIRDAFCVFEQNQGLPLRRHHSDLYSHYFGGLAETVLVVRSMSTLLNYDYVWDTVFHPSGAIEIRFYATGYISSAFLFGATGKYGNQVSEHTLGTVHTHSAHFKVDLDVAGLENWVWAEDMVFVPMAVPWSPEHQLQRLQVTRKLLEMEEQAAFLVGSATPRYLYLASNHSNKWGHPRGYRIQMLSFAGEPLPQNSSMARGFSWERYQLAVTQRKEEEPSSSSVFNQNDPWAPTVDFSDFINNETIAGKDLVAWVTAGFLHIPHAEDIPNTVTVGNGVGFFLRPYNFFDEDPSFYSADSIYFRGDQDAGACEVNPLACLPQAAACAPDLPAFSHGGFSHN
As to the kind of experiment: Human VAP-1 enzyme inhibition test. In kind it is biochemical. The note with it: 1 h; compound 30 nM; 14C-benzylamine 100 μM; read-out: inhibition ratio (human VAP-1 enzyme). As to the method:
Human VAP-1 enzyme inhibition test
This test was conducted by modifying the method of P. H. Yu et al. (Diabetologia 40 1243 (1997)). Human VAP-1 enzyme (R&D Systems, Inc.) was pre-incubated in a 96-well plate with the compound dissolved in dimethylsulfoxide at room temperature for 20 minutes. Next, in a solution to the final volume of 200 μL, the enzyme reaction solution was incubated with ^14C-benzylamine (final concentration 100 μM) at 37° C. for 1 hour. The reaction was terminated by the addition of 100 μL of 2 M citric acid solution to the reaction solution. The oxidative product was extracted using a toluene/ethyl acetate mixture and the radioactivity was measured with a liquid scintillation counter. The inhibition ratio of the compound was calculated using the following equation. Inhibition ratio={1−[VAP-1 enzyme activity after treatment with the compound]/[VAP-1 enzyme activity in the presence of dimethylsulfoxide alone without the compound]}×100
With `CCOC(=O)CCCON=C1CN(c2ncc(-c3cccc(COC(=O)NC(=N)N)c3F)cn2)C1` [Example 114, Ethyl 4-[({1-[5-(3-{[(carbamimidoylcarbamoyl)oxy]methyl}-2-fluorophenyl)pyrimidin-2-yl]azetidin-3-ylidene}amino)oxy]butanoate], the inhibition at 0.03 µM was at least 50%.
For the molecule `N=C(N)NC(=O)OCc1cccc(-c2cnc(N3CC(=NOCCCC(=O)O)C3)nc2)c1F` [Example 115, 4-[({1-[5-(3-{[(Carbamimidoylcarbamoyl)oxy]methyl}-2-fluorophenyl)pyrimidin-2-yl]azetidin-3-ylidene}amino)oxy]butanoic acid], the inhibition at 0.03 µM was at least 50%.
Under `CNC(=O)CCCON=C1CN(c2ncc(-c3cccc(COC(=O)NC(=N)N)c3F)cn2)C1` [Example 116, 2-Fluoro-3-[2-(3-{[4-(methylamino)-4-oxobutoxy]imino}azetidin-1-yl)pyrimidin-5-yl]benzyl carbamimidoylcarbamate] stands at least 50%; under `CN(C)CCON=C1CN(c2ncc(-c3cccc(COC(=O)NC(=N)N)c3F)cn2)C1` [Example 117, 3-[2-(3-{[2-(Dimethylamino)ethoxy]imino}azetidin-1-yl)pyrimidin-5-yl]-2-fluorobenzyl carbamimidoylcarbamate], at least 50%; under `CN(CCON=C1CN(c2ncc(-c3cccc(COC(=O)NC(=N)N)c3F)cn2)C1)Cc1ccccc1` [Example 118, 3-{2-[3-({2-[Benzyl(methyl)amino]ethoxy}imino)azetidin-1-yl]pyrimidin-5-yl}-2-fluorobenzyl carbamimidoylcarbamate], at least 50%.
The result for `CC(=O)NCC(CO)CON=C1CN(c2ncc(-c3cccc(COC(=O)NC(=N)N)c3F)cn2)C1` (stereo not shown) [Example 120, 3-[2-(3-{[3-Acetamido-2-(hydroxymethyl)propoxy]imino}azetidin-1-yl)pyrimidin-5-yl]-2-fluorobenzyl carbamimidoylcarbamate] reads at least 50%; that for `CN(C)CC(CO)CON=C1CN(c2ncc(-c3cccc(COC(=O)NC(=N)N)c3F)cn2)C1` (stereo not shown) [Example 122, 3-[2-(3-{[3-(Dimethylamino)-2-(hydroxymethyl)propoxy]imino}azetidin-1-yl)pyrimidin-5-yl]-2-fluorobenzyl carbamimidoylcarbamate], at least 50%.
In the case of `COC(CNC(C)=O)CON=C1CN(c2ncc(-c3cccc(COC(=O)NC(=N)N)c3F)cn2)C1` (stereo not shown) [Example 123, 3-(2-{3-[(3-Acetamido-2-methoxypropoxy)imino]azetidin-1-yl}pyrimidin-5-yl)-2-fluorobenzyl carbamimidoylcarbamate], the inhibition at 0.03 µM is at least 50%.
With `N=C(N)NC(=O)OCc1cccc(-c2cnc(N3CC(=NOCCN4CCCCC4)C3)nc2)c1F` [Example 124, 2-Fluoro-3-[2-(3-{[2-(piperidin-1-yl)ethoxy]imino}azetidin-1-yl)pyrimidin-5-yl]benzyl carbamimidoylcarbamate], the inhibition at 0.03 µM is at least 50%.
Under `N=C(N)NC(=O)OCc1cccc(-c2cnc(N3CC(=NOCCN4CCOCC4)C3)nc2)c1F` [Example 125, 2-Fluoro-3-(2-{3-[(2-morpholinoethoxy)imino]azetidin-1-yl}pyrimidin-5-yl)benzyl carbamimidoylcarbamate] stands at least 50%.
As to `N=C(N)NC(=O)OCc1cccc(-c2cnc(N3CC(=NOCCN4CCC4)C3)nc2)c1F` [Example 126, 3-[2-(3-{[2-(Azetidin-1-yl)ethoxy]imino}azetidin-1-yl)pyrimidin-5-yl]-2-fluorobenzyl carbamimidoylcarbamate], the inhibition at 0.03 µM was at least 50%.
`N=C(N)NC(=O)OCc1cccc(-c2cnc(N3CC(=NOCCN4CC(F)C4)C3)nc2)c1F` [Example 128, 2-Fluoro-3-[2-(3-{[2-(3-fluoroazetidin-1-yl)ethoxy]imino}azetidin-1-yl)pyrimidin-5-yl]benzyl carbamimidoylcarbamate]: the inhibition at 0.03 µM is at least 50%.
As for `CN1CCOC(CON=C2CN(c3ncc(-c4cccc(COC(=O)NC(=N)N)c4F)cn3)C2)C1` (stereo not shown) [Example 130, 2-Fluoro-3-[2-(3-{[(4-methylmorpholin-2-yl)methoxy]imino}azetidin-1-yl)pyrimidin-5-yl]benzyl carbamimidoylcarbamate], the inhibition at 0.03 µM is at least 50%.
The result for `CC(=O)N1CCOC(CON=C2CN(c3ncc(-c4cccc(COC(=O)NC(=N)N)c4F)cn3)C2)C1` (stereo not shown) [Example 131, 3-[2-(3-{[(4-Acetylmorpholin-2-yl)methoxy]imino}azetidin-1-yl)pyrimidin-5-yl]-2-fluorobenzyl carbamimidoylcarbamate] reads at least 50%; that for `N=C(N)NC(=O)OCc1cccc(-c2cnc(N3CC(=NOCC4CCC(=O)O4)C3)nc2)c1F` (stereo not shown) [Example 132, 2-Fluoro-3-[2-(3-{[(5-oxotetrahydrofuran-2-yl)methoxy]imino}azetidin-1-yl)pyrimidin-5-yl]benzyl carbamimidoylcarbamate], at least 50%.
Consider `N=C(N)NC(=O)OCc1cccc(-c2cnc(N3CC(=NOCc4ccccc4)C3)nc2)c1F` [Example 135, 3-(2-{3-[(Benzyloxy)imino]azetidin-1-yl}pyrimidin-5-yl)-2-fluorobenzyl carbamimidoylcarbamate], for which the inhibition at 0.03 µM is at least 50%.
Consider `COc1ccc(CON=C2CN(c3ncc(-c4cccc(COC(=O)NC(=N)N)c4F)cn3)C2)cc1` [Example 136, 2-Fluoro-3-[2-(3-{[(4-methoxybenzyl)oxy]imino}azetidin-1-yl)pyrimidin-5-yl]benzyl carbamimidoylcarbamate], for which the inhibition at 0.03 µM was at least 50%.
With `CN1CC(ON=C2CN(c3ncc(-c4cccc(COC(=O)NC(=N)N)c4F)cn3)C2)C1` [Example 137, 2-Fluoro-3-[2-(3-{[(1-methylazetidin-3-yl)oxy]imino}azetidin-1-yl)pyrimidin-5-yl]benzyl carbamimidoylcarbamate], the inhibition at 0.03 µM is at least 50%.
Consider `CC(=O)N1CC(ON=C2CN(c3ncc(-c4cccc(COC(=O)NC(=N)N)c4F)cn3)C2)C1` [Example 138, 3-[2-(3-{[(1-Acetylazetidin-3-yl)oxy]imino}azetidin-1-yl)pyrimidin-5-yl]-2-fluorobenzyl carbamimidoylcarbamate], for which the inhibition at 0.03 µM is at least 50%.
In the case of `N=C(N)NC(=O)OCc1cccc(-c2cnc(N3CC(=NOC4CN(Cc5ccccc5)C4)C3)nc2)c1F` [Example 139, 3-[2-(3-{[(1-Benzylazetidin-3-yl)oxy]imino}azetidin-1-yl)pyrimidin-5-yl]-2-fluorobenzyl carbamimidoylcarbamate], the inhibition at 0.03 µM is at least 50%.
The result for `N=C(N)NC(=O)OCc1cccc(-c2cnc(N3CC(=NOC4CN(CC(F)(F)F)C4)C3)nc2)c1F` [Example 140, 2-Fluoro-3-{2-[3-({[1-(2,2,2-trifluoroethyl)azetidin-3-yl]oxy}imino)azetidin-1-yl]pyrimidin-5-yl}benzyl carbamimidoylcarbamate] reads at least 50%; that for `CCN1CC(ON=C2CN(c3ncc(-c4cccc(COC(=O)NC(=N)N)c4F)cn3)C2)C1` [Example 142, 3-[2-(3-{[(1-Ethylazetidin-3-yl)oxy]imino}azetidin-1-yl)pyrimidin-5-yl]-2-fluorobenzyl carbamimidoylcarbamate], at least 50%; that for `COC(=O)N1CC(ON=C2CN(c3ncc(-c4cccc(COC(=O)NC(=N)N)c4F)cn3)C2)C1` [Example 143, Methyl 3-[({1-[5-(3-{[(carbamimidoylcarbamoyl)oxy]methyl}-2-fluorophenyl)pyrimidin-2-yl]azetidin-3-ylidene}amino)oxy]azetidin-1-carboxylate], at least 50%.
Take `N=C(N)NC(=O)OCc1cccc(-c2cnc(N3CC(=NOC4CN(CCO)C4)C3)nc2)c1F` [Example 146, 2-Fluoro-3-{2-[3-({[1-(2-hydroxyethyl)azetidin-3-yl]oxy}imino)azetidin-1-yl]pyrimidin-5-yl}benzyl carbamimidoylcarbamate]: the inhibition at 0.03 µM was at least 50%.
Consider `COCCN1CC(ON=C2CN(c3ncc(-c4cccc(COC(=O)NC(=N)N)c4F)cn3)C2)C1` [Example 147, 2-Fluoro-3-{2-[3-({[1-(2-methoxyethyl)azetidin-3-yl]oxy}imino)azetidin-1-yl]pyrimidin-5-yl}benzyl carbamimidoylcarbamate], for which the inhibition at 0.03 µM was at least 50%.
